In PMC2765816 (European journal of pharmacology, 2008):

Tests used:
[1] = biological target: T1, adenosine A2B receptor (Homo sapiens, UniProt P29275); conditions: ref Hide et al., 1992; cited from earlier work
T1 sequence (P29275 1-332): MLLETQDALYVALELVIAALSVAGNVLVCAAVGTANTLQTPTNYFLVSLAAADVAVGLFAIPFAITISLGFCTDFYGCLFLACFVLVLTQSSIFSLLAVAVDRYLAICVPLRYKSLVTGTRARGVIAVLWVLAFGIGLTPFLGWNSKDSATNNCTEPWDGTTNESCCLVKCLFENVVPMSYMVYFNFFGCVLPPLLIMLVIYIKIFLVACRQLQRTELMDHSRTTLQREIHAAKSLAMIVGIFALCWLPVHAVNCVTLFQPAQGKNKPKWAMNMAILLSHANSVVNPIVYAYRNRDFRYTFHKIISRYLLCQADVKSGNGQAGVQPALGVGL

[2] = biological target: adenosine A2A-CFP receptor (Homo sapiens, UniProt P29274); conditions: 0.45 M; agonist 2 μM NECA
Sequence of adenosine A2A-CFP receptor (P29274 1-363): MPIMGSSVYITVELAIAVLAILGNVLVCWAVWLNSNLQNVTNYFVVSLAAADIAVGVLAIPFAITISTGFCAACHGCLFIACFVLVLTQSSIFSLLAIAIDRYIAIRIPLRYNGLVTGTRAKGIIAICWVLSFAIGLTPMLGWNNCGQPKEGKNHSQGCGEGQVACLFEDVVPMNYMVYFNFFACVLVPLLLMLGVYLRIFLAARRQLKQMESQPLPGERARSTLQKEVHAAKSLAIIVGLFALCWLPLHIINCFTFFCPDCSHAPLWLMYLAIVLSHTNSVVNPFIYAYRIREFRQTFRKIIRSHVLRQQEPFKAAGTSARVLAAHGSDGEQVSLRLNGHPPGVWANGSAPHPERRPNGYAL

Row | Compound | activity at the adenosine A2B receptor [1] | effect on agonist-induced internalization of A2A-CFP [2]
1 | CCNC(=O)[C@H]1O[C@@H](n2cnc3c(N)nc(NCCc4ccc(CCC(=O)NCCN)cc4)nc32)[C@H](O)[C@@H]1O [APEC, 2-[4-(2-aminoethylaminocarbonylethyl)phenylethylamino]-5′-N-ethylcarboxamidoadenosine] | inactive | –
2 | OC[C@H]1O[C@@](CO)(O[C@H]2O[C@H](CO)[C@@H](O)[C@H](O)[C@H]2O)[C@@H](O)[C@@H]1O [hyperosmolar sucrose, sucrose] | – | prevented agonist-induced internalization
